Reference: patent US7985731B2, “Sugar chain added GLP-1 peptide” (Otsuka Chemical Holdings Co., Ltd., priority 2007, dated 2011)
Ends that are not written are not given here. asialo oligosaccharide = not defined here

Assays:
[1] = Test Example 1: stability in plasma; assay type: in vitro ADME; conditions: PBS 70% / plasma 30%, 37° C., sampled 10 to 1440 minutes
Description: 0.1 mg of the peptide prepared in Example 7 or Comparative Example 1 was placed in an Eppendorf tube, and PBS (0.08 ml, 70% of the whole amount) and plasma (0.034 ml, 30% of the whole amount) were sequentially placed therein to bring about the solution amount to 0.114 ml in total. The mixture was allowed to react at 37° C.
The time when plasma was added to the reaction vessel was defined as 0 min. 0.01 ml aliquots were taken from the reaction solution on 10, 30, 60, 180, 360, 720 and 1440 minutes for sampling.
Each sampled reaction solution was mixed with 0.02 ml of 10% trifluoroacetic acid solution prepared in advance in an Eppendorf tube and then centrifuged. A 0.025 ml aliquot of the supernatant of the solution mixture was injected into HPLC to analyze the composition of the reaction solution (reaction monitoring conditions: Shiseido CAPCELL PAK C18, UG120, 250×4.6 mm, developing solvent A: 0.1% aqueous TFA solution, B: 0.1% TFA acetonitrile: water=90:10, gradient A:B=95:5→5:95, 15 min, flow rate: 0.7 ml/min). The results are shown in FIGS. 5 (Example 7) and 6 (Comparative Example 1).

[2] = test system: type-2 diabetes model mice (BKS.Cg-+Lepr db/+Lepr db/Jcl); assay: Test Example 2: effect of lowering blood-sugar levels in db/db mice-1; assay type: in vivo; conditions: 9 nmol/kg intraperitoneal, 8-week-old male db/db mice, 0-180 minutes
Description: The peptide prepared in each of Examples 1 to 5 or Comparative Example 1 was intraperitoneally administered as the same sample at a dose of […] of body weight (sample concentration: 9 nmol/kg of body weight) to each of three 8-week-old male type-2 diabetes model mice (BKS.Cg−+Lepr^db/Lepr^db/Jcl*). Specifically, the peptide in a PBS solution (9 nmol/10 ml) was intraperitoneally administered at a dose of 10 ml/kg to the BKS.Cg−+Lepr^db/+Lepr^db/Jcl mice (8 week old, male). 0, 30, 60, 90, 120 and 180 minutes after the administration, 0.03 ml of peripheral blood from the retro-orbital venous plexus was collected. The obtained blood was diluted with PBS to 0.3 ml in total, and the solution was centrifuged to separate plasma and hemocyte components. Then, only the plasma component was transferred to an Eppendorf tube separately prepared and refrigerated. A glucose concentration in plasma was measured in accordance with Glucose CII-Test Wako using an absorptiometer. The results were obtained by statistical processing.

[3] = test system: C57BL/6JJcl mice; assay: Test Example 7: Oral Glucose Tolerance Test (OGTT); assay type: in vivo; conditions: 9 nmol/kg intraperitoneal 30 minutes before glucose 1 mg/g oral
Summary of the method: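 Overnight-fasted mice received oral glucose 1 mg/g 30 minutes after treatment. Orbital blood taken before and at 30, 60, 120 minutes post-glucose. Blood glucose measured by glucometer.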

[4] = test system: db/db (BKS.Cg-+Lepr db/+Lepr db/Jcl) mice; assay: Test Example 8: effect of lowering blood-sugar levels in diabetes model mice; assay type: in vivo; conditions: 9 nmol/kg intraperitoneal, 10-week-old male mice
Summary of the method: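 Male db/db mice, 10 weeks old, given oligosaccharide-chain-added GLP-1 peptide or unmodified GLP-1 intraperitoneally in PBS (9 nmol/10 ml, 10 ml/kg). Orbital blood sampled before dosing and at 30, 60, 120, 180 and 300 min; blood glucose read with a glucometer.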

Compound	stability in plasma (HPLC analysis of remaining peptide) [1]	effect of lowering blood-sugar levels (glucose concentration in plasma) [2]	effect of suppressing rise in blood-sugar levels in OGTT [3]	effect of lowering blood-sugar levels in db/db mice [4]
19Asn GLP-1-asialo (HAEGTFTSDVSSN(asialo oligosaccharide)LEGQAAKEFIAWLVKGRG; reading uncertain) [Example 7, GLP-1 wherein position 19 is substituted by asialo oligosaccharide chain added Asn]	mostly remained even after 24 hours	–	–	–
CC[C@H](C)[C@H](NC(=O)[C@H](Cc1ccccc1)NC(=O)[C@H](CCC(=O)O)NC(=O)[C@H](CCCCN)NC(=O)[C@H](C)NC(=O)[C@H](C)NC(=O)[C@H](CCC(N)=O)NC(=O)CNC(=O)[C@H](CCC(=O)O)NC(=O)[C@H](CC(C)C)NC(=O)[C@H](Cc1ccc(O)cc1)NC(=O)[C@H](CO)NC(=O)[C@H](CO)NC(=O)[C@@H](NC(=O)[C@H](CC(=O)O)NC(=O)[C@H](CO)NC(=O)[C@@H](NC(=O)[C@H](Cc1ccccc1)NC(=O)[C@@H](NC(=O)CNC(=O)[C@H](CCC(=O)O)NC(=O)[C@H](C)NC(=O)[C@@H](N)Cc1c[nH]cn1)[C@@H](C)O)[C@@H](C)O)C(C)C)C(=O)N[C@@H](C)C(=O)N[C@@H](Cc1c[nH]c2ccccc12)C(=O)N[C@@H](CC(C)C)C(=O)N[C@H](C(=O)N[C@@H](CCCCN)C(=O)NCC(=O)N[C@@H](CCCNC(=N)N)C(=O)NCC(=O)O)C(C)C [Comparative Example 1, GLP-1]	mostly degraded by 180 minutes after the plasma addition	hardly lowered blood-sugar levels	small effect of suppressing rise in blood-sugar levels	almost equal to those in PBS-administered mice
